From article PMC9500498 (Circulation research, 2021)
Peptide text beside a SMILES is read from it.

How the values were obtained:
pThr17-PLN = assay type: cell-based; conditions: neonatal rat cardiomyocytes; Suppl. Fig. 6a–b
CaMKIIδ-T287A [1] = experiment: In vitro CaMKII kinase assay; assay type: biochemical; conditions: CaM omitted; 32P incorporation into syntide, n=6
CaMKIIδ-T287A [2] = experiment: CaMKIIδ-catalyzed phosphorylation of Thr17-PLN at 0.5 μM Ca2+, immunoblot; assay type: biochemical; conditions: 0.5 μM free Ca2+
CaMKIIδ-T287A [3] = experiment: Immunoprecipitation of CaM with CaMKIIδ-T287A; assay type: binding; conditions: immunoprecipitation in the presence of CaM, n=15
CaMKIIδ = experiment: Overlay of 20-mer overlapping CaMKIIδ peptide arrays with biotinylated peptide; assay type: binding; conditions: 20-mer overlapping CaMKIIδ peptides on membranes
CaMKIIδ-T287D [4] = target: T1, CaMKIIδ-T287D (Homo sapiens, UniProt Q13557, T287D); experiment: CaMKIIδ-T287D-catalyzed phosphorylation of biotin-ahx-PLN; assay type: biochemical; conditions: biotin-ahx-PLN (1–30) as substrate, vs scrambled control peptide, n=7
CaM [5] = target: T2, CaM (Homo sapiens, UniProt P0DP23); experiment: SPR of immobilized biotin-ahx-AKAP18δ; assay type: binding
CaMKIIδ-T287D [6] = target: T1, CaMKIIδ-T287D; experiment: In vitro CaMKII kinase assay; assay type: biochemical; conditions: 32P incorporation into syntide; compared among AKAP18δ-N sequences
CaM [7] = target: T2, CaM; experiment: CaM-agarose precipitation in the presence of Ca2+, immunoblot; assay type: binding; conditions: Suppl. Fig. 4b–c
Ca^2+/CaM = experiment: ELISA-based binding of biotinylated peptide to CaM-coated wells; conditions: biotinylated peptide vs scrambled control, n=6
CaMKIIδ-T287D [8] = target: T1, CaMKIIδ-T287D; conditions: compared with AKAP18δ-N (55–98), Suppl. Fig. 2j–k

T1 sequence (Q13557 whole entry T287D): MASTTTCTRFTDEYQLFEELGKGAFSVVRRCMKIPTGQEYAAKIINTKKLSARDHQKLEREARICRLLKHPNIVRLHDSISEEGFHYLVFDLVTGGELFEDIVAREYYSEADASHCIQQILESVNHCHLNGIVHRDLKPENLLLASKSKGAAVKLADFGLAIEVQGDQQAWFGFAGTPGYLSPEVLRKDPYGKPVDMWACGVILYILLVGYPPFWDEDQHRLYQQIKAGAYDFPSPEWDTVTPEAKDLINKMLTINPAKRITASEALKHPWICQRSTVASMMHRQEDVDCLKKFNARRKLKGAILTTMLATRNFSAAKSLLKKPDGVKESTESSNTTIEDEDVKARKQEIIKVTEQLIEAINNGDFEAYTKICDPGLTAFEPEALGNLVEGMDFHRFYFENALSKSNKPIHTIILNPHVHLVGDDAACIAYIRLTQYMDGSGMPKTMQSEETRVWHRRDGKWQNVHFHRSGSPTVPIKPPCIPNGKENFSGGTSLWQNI

CC[C@H](C)[C@H](NC(=O)[C@H](CCC(N)=O)NC(=O)[C@H](Cc1ccc(O)cc1)NC(=O)[C@H](CC(C)C)NC(=O)[C@@H](NC(=O)[C@H](CCC(=O)O)NC(=O)[C@H](CCC(=O)O)NC(=O)CNC(=O)[C@H](Cc1ccccc1)NC(=O)[C@H](CCCNC(=N)N)NC(=O)[C@H](Cc1c[nH]cn1)NC(=O)[C@H](CC(=O)O)NC(=O)[C@@H](NC(=O)[C@H](Cc1ccccc1)NC(=O)[C@H](CCC(N)=O)NC(=O)[C@H](CCC(=O)O)NC(=O)[C@H](Cc1ccc(O)cc1)NC(=O)[C@H](CC(C)C)NC(=O)CNC(=O)[C@@H]1CCCN1C(=O)[C@H](CCC(=O)O)NC(=O)[C@@H](NC(=O)[C@H](CCCCN)NC(=O)[C@H](CCCNC(=N)N)NC(=O)[C@@H](NC(=O)CNC(=O)[C@H](CCCCN)NC(=O)[C@@H](N)CCCCN)C(C)C)[C@@H](C)CC)[C@@H](C)CC)[C@@H](C)CC)C(=O)N[C@@H](CC(=O)O)C(=O)O [AKAP18δ-C]
pThr17-PLN level (pThr17-PLN): augmented
substrate phosphorylation by CaMKIIδ-T287A (CaMKIIδ-T287A [1]): increased substrate phosphorylation
Thr17-PLN phosphorylation by CaMKIIδ-T287A (CaMKIIδ-T287A [2]): further increased Thr17-PLN phosphorylation in the presence of either AKAP18δ-C (tendency)
trapping of CaM to CaMKIIδ-T287A (CaMKIIδ-T287A [3]): induced trapping of CaM
CaMKIIδ binding on peptide arrays (CaMKIIδ): too weak or dynamic to be detected
cytotoxicity (and changes at basal level) (cardiomyocytes): No cytotoxicity

CC[C@H](C)[C@H](NC(=O)[C@@H]1CCCN1C(=O)[C@@H](NC(=O)[C@H](CO)NC(=O)[C@H](CC(C)C)NC(=O)[C@H](Cc1ccccc1)NC(=O)[C@H](Cc1ccc(O)cc1)NC(=O)[C@H](CC(N)=O)NC(=O)[C@@H]1CCCN1C(=O)[C@H](CCC(N)=O)NC(=O)[C@H](Cc1ccc(O)cc1)NC(=O)[C@H](CC(=O)O)NC(=O)[C@H](CCCCN)NC(=O)[C@H](CCCCN)NC(=O)[C@H](C)NC(=O)[C@H](CCCCN)NC(=O)[C@H](CCCCN)NC(=O)[C@H](CCCNC(=N)N)NC(=O)[C@H](CCCCN)NC(=O)[C@H](CCCCN)NC(=O)[C@@H](NC(=O)[C@H](Cc1c[nH]cn1)NC(=O)[C@H](CC(=O)O)NC(=O)[C@H](CC(N)=O)NC(=O)[C@H](CCCNC(=N)N)NC(=O)[C@H](CC(=O)O)NC(=O)CNC(=O)[C@H](CCCNC(=N)N)NC(=O)[C@H](CC(N)=O)NC(=O)[C@H](CCC(=O)O)NC(=O)[C@H](CCCCN)NC(=O)[C@H](CO)NC(=O)[C@H](CCCNC(=N)N)NC(=O)[C@H](CCCCN)NC(=O)[C@@H]1CCCN1C(=O)[C@H](CC(N)=O)NC(=O)CNC(=O)[C@H](CCC(N)=O)NC(=O)[C@@H]1CCCN1C(=O)[C@@H](NC(=O)[C@H](CC(N)=O)NC(=O)CNC(=O)[C@H](CCC(N)=O)NC(=O)[C@@H]1CCCN1)C(C)C)C(C)C)[C@@H](C)CC)C(=O)O [AKAP18δ-N (55–98)]
CaMKIIδ-T287D-catalyzed phosphorylation of Thr17 in PLN (CaMKIIδ-T287D [4]): reduced

CC[C@H](C)[C@H](NC(=O)[C@@H]1CCCN1C(=O)[C@@H](NC(=O)[C@H](CO)NC(=O)[C@H](CC(C)C)NC(=O)[C@H](Cc1ccccc1)NC(=O)[C@H](Cc1ccc(O)cc1)NC(=O)[C@H](CC(N)=O)NC(=O)[C@@H]1CCCN1C(=O)[C@H](CCC(N)=O)NC(=O)[C@H](Cc1ccc(O)cc1)NC(=O)[C@H](CC(=O)O)NC(=O)[C@H](CCCCN)NC(=O)[C@H](CCCCN)NC(=O)[C@H](C)NC(=O)[C@H](CCCCN)NC(=O)[C@H](CCCCN)NC(=O)[C@H](CCCNC(=N)N)NC(=O)[C@H](CCCCN)NC(=O)[C@@H](N)CCCCN)[C@@H](C)CC)C(=O)O [AKAP18δ-N (79–98)] (H-KKRKKAKKDYQPNYFLSIPI-OH; N-terminus and C-terminus assumed)
kon (CaM [5]; read-out: association rate constant (ka)): 130 M⁻¹ s⁻¹
koff (CaM [5]; read-out: dissociation rate constant (kd)): 0.00053 s⁻¹
effect on CaMKIIδ-T287D activity (in words) (CaMKIIδ-T287D [6]): inhibitory
precipitation with CaM-agarose (CaM [7]): precipitated with CaM-agarose
CaM binding, ELISA-based assay (Ca^2+/CaM): confirmed
SPR binding to CaMKIIδ-T287D (in words) (CaMKIIδ-T287D [8]): bound strongly
